“Also recorded” adds a separate entry of the source. Active and inactive are the calls of the source. The rule behind the calls is not given here.
Tested on: CCRIS mutagenicity, Ames/micronucleus/aberration tests
Experiment: CCRIS mutagenicity studies

For O=C(c1ccccc1)C(O)c1ccccc1 (stereo unspecified), the mutagenic call (End Point: IN VITRO CHROMOSOMAL ABERRATIONS, Test System: CHL/IU CELLS, Metabolic Activation: RAT, LIVER, S-9, PHENOBARBITAL AND 5,6-BENZOFLAVONE) was “active; positive (structural changes)”, the mutagenic call (End Point: IN VITRO CHROMOSOMAL ABERRATIONS, Test System: CHO CELLS, Metabolic Activation: NONE) was “active; positive; weak response; precipitation occurred at 500 ug/ml; also recorded: inactive; negative; precipitation occurred at 500 ug/ml” and the mutagenic call (End Point: IN VITRO MICRONUCLEUS, Test System: CHL/IU CELLS, Metabolic Activation: RAT, LIVER, S-9, PHENOBARBITAL AND 5,6-BENZOFLAVONE) was “active; positive”. For the same compound, the mutagenic call (End Point: IN VIVO MICRONUCLEUS, Test System: BLOOD ERYTHROCYTES, Species: MOUSE, Strain/Sex: CD-1/MALE, Route: ORAL) was “inactive; negative”, the mutagenic call (Test System: AMES SALMONELLA TYPHIMURIUM, Strain/Indicator: TA97, Metabolic Activation: HAMSTER LIVER S-9, AROCLOR 1254 (10%), Method: PREINCUBATION) was “inactive; negative” and the mutagenic call (Test System: AMES SALMONELLA TYPHIMURIUM, Strain/Indicator: TA97, Metabolic Activation: NONE, Method: PREINCUBATION) was “inactive; negative”. The mutagenic call (Test System: AMES SALMONELLA TYPHIMURIUM, Strain/Indicator: TA97, Metabolic Activation: NONE, Method: STANDARD PLATE) was “inactive; negative”, the mutagenic call (Test System: AMES SALMONELLA TYPHIMURIUM, Strain/Indicator: TA97, Metabolic Activation: RAT LIVER S-9, AROCLOR 1254 (10%), Method: PREINCUBATION) was “inactive; negative” and the mutagenic call (Test System: AMES SALMONELLA TYPHIMURIUM, Strain/Indicator: TA97, Metabolic Activation: S-9, Method: STANDARD PLATE) was “inactive; negative”. The mutagenic call (Test System: AMES SALMONELLA TYPHIMURIUM, Strain/Indicator: TA98, Metabolic Activation: HAMSTER LIVER S-9, AROCLOR 1254 (10%), Method: PREINCUBATION) was “inactive; negative”, the mutagenic call (Test System: AMES SALMONELLA TYPHIMURIUM, Strain/Indicator: TA98, Metabolic Activation: NONE, Method: PREINCUBATION) was “inactive; negative” and the mutagenic call (Test System: AMES SALMONELLA TYPHIMURIUM, Strain/Indicator: TA98, Metabolic Activation: NONE, Method: STANDARD PLATE) was “inactive; negative”. For the same compound, the mutagenic call (Test System: AMES SALMONELLA TYPHIMURIUM, Strain/Indicator: TA98, Metabolic Activation: RAT LIVER S-9, AROCLOR 1254 (10%), Method: PREINCUBATION) was “inactive; negative”, the mutagenic call (Test System: AMES SALMONELLA TYPHIMURIUM, Strain/Indicator: TA98, Metabolic Activation: RAT, LIVER, S-9, AROCLOR 1254, Method: STANDARD PLATE) was “inactive; negative” and the mutagenic call (Test System: AMES SALMONELLA TYPHIMURIUM, Strain/Indicator: TA98, Metabolic Activation: S-9, Method: STANDARD PLATE) was “inactive; negative”. The mutagenic call (Test System: AMES SALMONELLA TYPHIMURIUM, Strain/Indicator: TA100, Metabolic Activation: HAMSTER LIVER S-9, AROCLOR 1254 (10%), Method: PREINCUBATION) was “inactive; negative”, the mutagenic call (Test System: AMES SALMONELLA TYPHIMURIUM, Strain/Indicator: TA100, Metabolic Activation: NONE, Method: PREINCUBATION) was “inactive; negative” and the mutagenic call (Test System: AMES SALMONELLA TYPHIMURIUM, Strain/Indicator: TA100, Metabolic Activation: NONE, Method: STANDARD PLATE) was “inactive; negative”. The mutagenic call (Test System: AMES SALMONELLA TYPHIMURIUM, Strain/Indicator: TA100, Metabolic Activation: RAT LIVER S-9 AROCLOR 1254 (10%), Method: PREINCUBATION) was “inactive; negative”, the mutagenic call (Test System: AMES SALMONELLA TYPHIMURIUM, Strain/Indicator: TA100, Metabolic Activation: RAT, LIVER, S-9, AROCLOR 1254, Method: STANDARD PLATE) was “inactive; negative” and the mutagenic call (Test System: AMES SALMONELLA TYPHIMURIUM, Strain/Indicator: TA100, Metabolic Activation: S-9, Method: STANDARD PLATE) was “inactive; negative”. The mutagenic call (Test System: AMES SALMONELLA TYPHIMURIUM, Strain/Indicator: TA102, Metabolic Activation: NONE, Method: STANDARD PLATE) was “inactive; negative”, the mutagenic call (Test System: AMES SALMONELLA TYPHIMURIUM, Strain/Indicator: TA102, Metabolic Activation: RAT LIVER S-9, PHENOBARBITAL AND 5,6-BENZOFLAVONE, Method: STANDARD PLATE) was “inactive; negative” and the mutagenic call (Test System: AMES SALMONELLA TYPHIMURIUM, Strain/Indicator: TA102, Metabolic Activation: RAT, LIVER, S-9, AROCLOR 1254, Method: STANDARD PLATE) was “inactive; negative”. The mutagenic call (Test System: AMES SALMONELLA TYPHIMURIUM, Strain/Indicator: TA102, Metabolic Activation: S-9, Method: STANDARD PLATE) was “inactive; negative”, the mutagenic call (Test System: AMES SALMONELLA TYPHIMURIUM, Strain/Indicator: TA1535, Metabolic Activation: HAMSTER LIVER S-9, AROCLOR 1254 (5%), Method: PREINCUBATION) was “inactive; negative” and the mutagenic call (Test System: AMES SALMONELLA TYPHIMURIUM, Strain/Indicator: TA1535, Metabolic Activation: HAMSTER LIVER S-9, AROCLOR 1254 (10%), Method: PREINCUBATION) was “inactive; negative”. For the same compound, the mutagenic call (Test System: AMES SALMONELLA TYPHIMURIUM, Strain/Indicator: TA1535, Metabolic Activation: NONE, Method: PREINCUBATION) was “active; positive”, the mutagenic call (Test System: AMES SALMONELLA TYPHIMURIUM, Strain/Indicator: TA1535, Metabolic Activation: NONE, Method: STANDARD PLATE) was “inactive; negative” and the mutagenic call (Test System: AMES SALMONELLA TYPHIMURIUM, Strain/Indicator: TA1535, Metabolic Activation: RAT LIVER S-9, AROCLOR 1254 (5%), Method: PREINCUBATION) was “inactive; negative”. The mutagenic call (Test System: AMES SALMONELLA TYPHIMURIUM, Strain/Indicator: TA1535, Metabolic Activation: RAT LIVER S-9, AROCLOR 1254 (10%), Method: PREINCUBATION) was “inactive; negative”, the mutagenic call (Test System: AMES SALMONELLA TYPHIMURIUM, Strain/Indicator: TA1535, Metabolic Activation: RAT, LIVER, S-9, AROCLOR 1254, Method: STANDARD PLATE) was “inactive; negative” and the mutagenic call (Test System: AMES SALMONELLA TYPHIMURIUM, Strain/Indicator: TA1537, Metabolic Activation: NONE, Method: STANDARD PLATE) was “inactive; negative”. For the same compound, the mutagenic call (Test System: AMES SALMONELLA TYPHIMURIUM, Strain/Indicator: TA1537, Metabolic Activation: RAT, LIVER, S-9, AROCLOR 1254, Method: STANDARD PLATE) was “inactive; negative”, the mutagenic call (Test System: AMES SALMONELLA TYPHIMURIUM, Strain/Indicator: TA1538, Metabolic Activation: NONE, Method: STANDARD PLATE) was “inactive; negative” and the mutagenic call (Test System: AMES SALMONELLA TYPHIMURIUM, Strain/Indicator: TA1538, Metabolic Activation: RAT, LIVER, S-9, AROCLOR 1254, Method: STANDARD PLATE) was “inactive; negative”. For the same compound, the mutagenic call (Test System: AMES SALMONELLA TYPHIMURIUM, Strain/Indicator: TA2638, Metabolic Activation: RAT LIVER S-9, PHENOBARBITAL AND 5,6-BENZOFLAVONE, Method: STANDARD PLATE) was “inactive; negative”, the mutagenic call (Test System: CHINESE HAMSTER OVARY, Strain/Indicator: CHO-K1-BH4 (HGPRT)/6-THIOGUANINE, Metabolic Activation: NONE, Method: SUSPENSION/PLATE) was “inactive; negative” and the mutagenic call (Test System: CHINESE HAMSTER OVARY, Strain/Indicator: CHO-K1-BH4 (HGPRT)/6-THIOGUANINE, Metabolic Activation: S-9, Method: SUSPENSION/PLATE) was “inactive; negative”. The mutagenic call (Test System: CHINESE HAMSTER OVARY, Strain/Indicator: CHO-K1-BH4 (HGPRT), Metabolic Activation: NONE, Method: SUSPENSION/PLATE) was “inactive; negative”, the mutagenic call (Test System: CHINESE HAMSTER OVARY, Strain/Indicator: CHO-K1-BH4 (HGPRT), Metabolic Activation: RAT, LIVER, S-9, AROCLOR, Method: SUSPENSION/PLATE) was “inactive; negative” and the mutagenic call (Test System: CHINESE HAMSTER V-79, Strain/Indicator: V-79 (HGPRT)/8-AZAGUANINE, Metabolic Activation: NONE, Method: REPLATING) was “inactive; negative”. For the same compound, the mutagenic call (Test System: CHINESE HAMSTER V-79, Strain/Indicator: V-79 (HGPRT)/8-AZAGUANINE, Metabolic Activation: RAT, LIVER, S-9, AROCLOR 1254, Method: REPLATING) was “active; positive”, the mutagenic call (Test System: CHINESE HAMSTER V-79, Strain/Indicator: V-79/6-THIOGUANINE, Metabolic Activation: NONE, Method: REPLATING) was “inactive; negative” and the mutagenic call (Test System: CHINESE HAMSTER V-79, Strain/Indicator: V-79/6-THIOGUANINE, Metabolic Activation: RAT, LIVER, S-9, PHENOBARBITAL AND 5,6-BENZOFLAVONE, Method: REPLATING) was “active; positive”. The mutagenic call (Test System: CHINESE HAMSTER V-79, Strain/Indicator: V-79/OUABAIN, Metabolic Activation: HAMSTER EMBRYO CELL-MEDIATED) was “inactive; negative”, the mutagenic call (Test System: CHINESE HAMSTER V-79, Strain/Indicator: V-79/OUABAIN, Metabolic Activation: NONE) was “inactive; negative” and the mutagenic call (Test System: CHINESE HAMSTER V-79, Strain/Indicator: V-79/OUABAIN, Metabolic Activation: RAT, LIVER, S-15, PHENOBARBITAL AND 5,6-BENZOFLAVONE) was “inactive; negative”. For the same compound, the mutagenic call (Test System: E. COLI, Strain/Indicator: WP2 (PKM101), Metabolic Activation: RAT LIVER S-9, PHENOBARBITAL AND 5,6-BENZOFLAVONE, Method: STANDARD PLATE) was “inactive; negative”, the mutagenic call (Test System: E. COLI, Strain/Indicator: WP2 UVRA (PKM101), Metabolic Activation: RAT LIVER S-9, PHENOBARBITAL AND 5,6-BENZOFLAVONE, Method: STANDARD PLATE) was “inactive; negative” and the mutagenic call (Test System: MOUSE LYMPHOMA, Strain/Indicator: L5178Y (TK+/-)/TRIFLUROTHYMIDINE, Metabolic Activation: NONE, Method: SUSPENSION/PLATE) was “inactive; negative”. The mutagenic call (Test System: MOUSE LYMPHOMA, Strain/Indicator: L5178Y (TK+/-)/TRIFLUROTHYMIDINE, Metabolic Activation: RAT LIVER S-9, AROCLOR 1254, Method: SUSPENSION/PLATE) was “inactive; negative”, the mutagenic call (Test System: MOUSE LYMPHOMA, Strain/Indicator: L5178Y (TK+/TK-), Metabolic Activation: NONE, Method: SUSPENSION/PLATE) was “inactive; negative” and the mutagenic call (Test System: MOUSE LYMPHOMA, Strain/Indicator: L5178Y (TK+/TK-), Metabolic Activation: RAT, LIVER, S-9, Method: SUSPENSION/PLATE) was “inactive; negative”. For the same compound, the mutagenic call (Test System: MOUSE LYMPHOMA, Strain/Indicator: L5178Y (TK+/TK-), Metabolic Activation: S-9, Method: SUSPENSION/PLATE) was “active; positive” and the mutagenic call (Test System: UDS RAT HEPATOCYTES, Strain/Indicator: THY INCORP, Metabolic Activation: NONE, Method: LIQUID SCINTILLATION COUNTING) was “active; positive”.

Reference: PubChem BioAssay AID1259407 (Chemical Carcinogenesis Research Information System (CCRIS), 2018)
